Measured values: patent publication US20190142829A1, “AMELIORATION OF ANGELMAN'S SYNDROME DEFICIENCIES” (Neuralstem, Inc., priority 2017, published 2019)

Legend:
[1] = system: hippocampal slices from normal, healthy, young adult mice (field CA1); assay: LTP elicited by theta burst stimulation in hippocampal slices treated in vitro, normal mice; type: cell-based; conditions: 100 nM to 10 μM for up to 3.5 h before theta burst stimulation, applicant's work, Liu et al, SfN Abstract 2016
Experimental: In work by applicant, hippocampal slices from normal, healthy, young adult mice were treated with various concentrations of NSI-189 (100 nM to 10 μM) for various times up to 3.5 h, before applying theta burst stimulation (TBS) to elicit long-term potentiation (LTP) in field CA1.

[2] = system: hippocampal brain slices prepared from young adult Angelman mice; assay: LTP in hippocampal brain slices treated in vitro, Angelman mice; type: cell-based; conditions: slices from Angelman mice (maternal Ube3A deletion); transient treatment for 3.5 hours; Liu et al, SfN Abstract 2016
Excerpt: Further, in a mouse model of Angelman syndrome, carrying the same maternal Ube3A deletion affected in human AS patients, the normal LTP is absent.

[3] = system: mice with Angelman syndrome (AS); assay: LTP assay on post-mortem hippocampal slices after in vivo dosing, AS mice; conditions: 30 mg/kg phosphate salt i.p. daily for 18 days, vs vehicle, p<0.05, FIG. 2
Experimental: (§1) Four groups (n=4/5 per group) of young adult mice (age ˜3 months) were administered 30mg/kg of the phosphate salt of NSI-189 i.p. daily for 13-15 days for behavior assays and for 18 days prior to termination followed by in vitro LTP assays or administered only vehicle. The groups included • (1) mice with Angelman syndrome (AS) treated with NSI-189, • (2) mice with Angelman syndrome (AS) treated with vehicle, • (3) wild-type littermates treated with NSI-189, and • (4) wild-type littermates treated with vehicle.

wild type mice = assay: LTP assay on post-mortem hippocampal slices after in vivo dosing, wild type mice; conditions: 30 mg/kg phosphate salt i.p. daily for 18 days, FIG. 2
Experimental: as §1

[4] = system: mice with Angelman syndrome (AS); assay: Fear-conditioning test, mouse model of Angelman syndrome; type: in vivo; conditions: 30 mg/kg phosphate salt i.p. daily, 2 weeks, vs vehicle, p<0.01, FIG. 1
Experimental: as §1
The behavior assay conducted was fear-conditioning test as diagnostic of hippocampal memory function.

AS mice = assay: Wire hang test (Hanging Wire test), AS mice; type: in vivo; conditions: phosphate i.p. over 21 days: D1-D7 3, D8-D14 10, D15-D21 30 mg/kg, maximum 120 sec, ultimately matched wild type, FIG. 3
Experimental: The wire hang test evaluates muscle strength as well as motor coordination. The set up includes a wire (0.2 cm in diameter×54.5 cm in length) stretched horizontally between two poles and elevated from a padded surface. The test starts when the mouse hangs onto the wire from its two forelimbs and lasts for 120 sec maximum. The time before falling, or the maximum score of 120 sec if no fall occurred, is recorded for each animal.
Four groups 5 mice for each group were used. Controls were administered vehicle and test groups were administered NSI-189 phosphate i.p. over 21 days as follows: D1-D7—3 mg/kg NSI-189 phosphate; D8-D14—10 mg/kg NSI-189 phosphate; D15-D21—30 mg/kg NSI-189 phosphate.
As shown, the AS mice administered only vehicle were not able to hang onto the wire for more than about 20 seconds, whereas AS mice treated with NSI-189 ultimately matched the times of wild type mice at about 100 seconds.

With CC(C)CCNc1ncccc1C(=O)N1CCN(Cc2ccccc2)CC1.O=P(O)(O)O [NSI-189] the “effect on long-term potentiation (LTP) in field CA1” value [1] was “statistically significant enhancement of the normal LTP level”, the “effect on LTP activity” value [2] was “restore the LTP activity to normal level” and the “LTP in post-mortem hippocampal slices” value [3] was “restoration of LTP”. For the same compound, the “LTP in post-mortem hippocampal slices” value (wild type mice) was “improved”, the “freezing time following ring-tone (memory deficit)” value [4] was “memory deficit was diminished” and the “time before falling (hanging on the wire)” value (AS mice) was “about 100 seconds”.
